This is an account of results in ChEMBL document CHEMBL1800042, “Generation of 3,8-substituted 1,2,4-triazolopyridines as potent inhibitors of human 11β-hydroxysteroid dehydrogenase type 1 (11β-HSD-1)” (Bioorg Med Chem Lett, 2011).

≈ marks a conversion by molar mass, not a printed value.

By solubility is commonly meant the concentration that dissolves in the medium under given conditions. Lower therefore signals a poorly soluble substance.

The nature of this series: Solubility of the compound at pH 7.4. Format: physicochemical. The settings on record: buffer.
Compound `Cc1c(Cl)cccc1Oc1cccn2c(C34CCC(O)(CC3)CC4)nnc12` showed a solubility of 11 µg/mL (≈ 28.7 µM).
In turn, `Cc1c(Cl)cccc1Oc1cccn2c(C34CCC(F)(CC3)CC4)nnc12` came in with a solubility of 1 µg/mL (≈ 2.59 µM).
In the case of `Cc1c(Cl)cccc1Oc1cccn2c(C34CCC(CC3)C4)nnc12` it was 1 µg/mL (≈ 2.83 µM).
